# Article PMC9525273 (Nature Communications, 2022)
# Several values for one entry are separate records, joined by “and”; a condition that tells them apart may be missing. Equal values may be shown once. Read-outs that look alike come from different tables or passages of the source.
# What was measured:
# [1] = target: T1, TgATP4^WT (membranes from T. gondii tachyzoites) (Toxoplasma gondii, UniProt B9QMJ0); assay: Membrane ATPase assay, ATP4-associated (Na+-dependent) ATPase activity; type: biochemical; set-up: IC50 for inhibition of ATP4-associated ATPase activity, MEAN: unit: nM; conditions: for IC50 for inhibition of ATP4-associated ATPase activity, MEAN: WT T. gondii membranes, source data of Table 1 (nM there); for IC50 for ATP4-associated ATPase activity: membranes from WT T. gondii (TgATP4WT), mean ± SEM
# T1 sequence (B9QMJ0 1-1338): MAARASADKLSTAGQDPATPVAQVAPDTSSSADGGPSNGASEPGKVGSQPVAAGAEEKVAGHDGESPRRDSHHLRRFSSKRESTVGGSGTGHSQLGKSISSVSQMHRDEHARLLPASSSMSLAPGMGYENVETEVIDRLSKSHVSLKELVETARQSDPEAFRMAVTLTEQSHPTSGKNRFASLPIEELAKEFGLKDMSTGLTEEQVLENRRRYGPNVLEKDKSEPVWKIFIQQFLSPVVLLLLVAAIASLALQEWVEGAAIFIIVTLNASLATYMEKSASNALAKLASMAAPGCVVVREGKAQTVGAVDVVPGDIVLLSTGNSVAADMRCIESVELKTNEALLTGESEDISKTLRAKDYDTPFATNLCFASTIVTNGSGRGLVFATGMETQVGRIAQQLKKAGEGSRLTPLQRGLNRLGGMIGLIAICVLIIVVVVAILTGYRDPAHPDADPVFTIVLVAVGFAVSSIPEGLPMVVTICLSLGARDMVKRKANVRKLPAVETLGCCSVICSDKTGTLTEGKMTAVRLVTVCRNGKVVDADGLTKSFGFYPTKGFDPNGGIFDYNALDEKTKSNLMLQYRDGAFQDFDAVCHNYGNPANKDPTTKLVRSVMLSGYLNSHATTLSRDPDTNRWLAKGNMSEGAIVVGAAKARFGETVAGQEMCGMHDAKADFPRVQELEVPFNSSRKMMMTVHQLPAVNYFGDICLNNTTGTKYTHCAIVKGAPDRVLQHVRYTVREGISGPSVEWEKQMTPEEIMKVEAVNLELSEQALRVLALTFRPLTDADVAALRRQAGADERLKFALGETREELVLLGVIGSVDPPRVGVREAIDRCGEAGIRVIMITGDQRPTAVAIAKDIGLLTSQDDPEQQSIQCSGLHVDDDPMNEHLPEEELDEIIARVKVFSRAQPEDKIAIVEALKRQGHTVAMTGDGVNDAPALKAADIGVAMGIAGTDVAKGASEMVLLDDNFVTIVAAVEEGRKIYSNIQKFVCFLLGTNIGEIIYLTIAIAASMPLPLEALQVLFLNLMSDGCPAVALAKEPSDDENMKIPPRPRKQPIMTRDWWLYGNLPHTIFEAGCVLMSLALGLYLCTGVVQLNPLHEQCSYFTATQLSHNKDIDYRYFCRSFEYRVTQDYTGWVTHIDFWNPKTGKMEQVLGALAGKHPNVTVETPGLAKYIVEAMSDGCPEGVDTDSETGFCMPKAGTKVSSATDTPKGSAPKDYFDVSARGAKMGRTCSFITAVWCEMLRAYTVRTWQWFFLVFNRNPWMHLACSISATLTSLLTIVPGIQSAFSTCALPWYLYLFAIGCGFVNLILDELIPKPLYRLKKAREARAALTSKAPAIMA
# Experimental: Membranes from isolated P. falciparum or extracellular T. gondii parasites were prepared by lysing parasites in ice-cold deionized water containing a 1:500 dilution of Protease Inhibitor Cocktail Set III (Merck Millipore), then washing the membrane preparation three times in ice-cold deionized water (with protease inhibitors present for the first two washes)[15]. Protein concentrations in the membrane preparations were measured using a Bradford assay. The PiColorLock Gold Phosphate Detection System (Innova Biosciences) was used to measure the production of Pi from hydrolysis of ATP[15]. Membrane preparations were diluted in either a high Na^+ solution (yielding final conditions in the reactions of 150 mM NaCl, 20 mM KCl, 2 mM MgCl2, 50 mM Tris, pH 7.2) or a Na^+-free solution (yielding final conditions of 150 mM choline chloride, 20 mM KCl, 2 mM MgCl2, 50 mM Tris, pH 7.2) to achieve a total protein concentration of 50 μg/mL. […] The reactions were performed at 37 °C, and were initiated by the addition of 1 mM ATP (Na2ATP۰3H2O; MP Biomedicals) and terminated 10 min later by adding 100 μL of reaction mixture (in duplicate) to 25 μL “Gold mix” in a 96-well plate. “Stabiliser” was added 3 min later, and the plates incubated at room temperature in the dark for 60 min before measuring absorbance at 635 nm. Background values (averaged from wells containing all components, but to which ATP was not added until after the membrane was exposed to Gold mix) were subtracted from the data. For each treatment, the ATPase activity associated with the (Na^+-dependent) PfATP4 and TgATP4 proteins was calculated by subtracting data obtained in the low Na^+ condition (containing only the 2 mM Na^+ introduced on addition of 1 mM Na2ATP) from that obtained in the high Na^+ condition.
# [2] = tested on: Dd2-B2 parasites; assay: P. falciparum proliferation assay (72 h, flow cytometry, SYBR Green I/MitoTracker); type: cell-based; conditions: Plasmodium falciparum, DD2, read-out: IC50 value
# Experimental: (§1) Two types of parasite proliferation assays were employed in this study, with both yielding highly consistent results. For the NF54-based lines and Dd2-B2-PfATP4^G358S and its parent, assays were initiated with cultures containing predominantly ring-stage parasites with a parasitaemia of 0.3% and a haematocrit of 1%. All assays using NF54 were performed in culture media containing 10% O + human serum. The duration of the assays was 72 h and the concentration of DMSO was <0.5% (v/v). Serial dilutions of the test compounds were performed using a Tecan D300e digital dispenser, with parasite cultures added manually. Parasite survival was assessed by flow cytometry on an Intellicyt iQue3 (Essen Bioscience), with 1× SYBR Green I (Invitrogen) and 200 nM MitoTracker Deep Red FM (Invitrogen) used to stain the nucleus and the mitochondria in live parasites, respectively. The gating strategy used to quantify parasite survival, performed using FlowJo version 10 (FlowJo LLC.), is illustrated in Supplementary Fig. 9. IC50 and IC90 values were calculated by linear interpolation of the dose-response data.
# [3] = tested on: Dd2-B2-PfATP4^G358S parasites; assay: as above; type: cell-based; conditions: Plasmodium falciparum; Dd2-B2-PfATP4G358S; mean ± SEM
# Experimental: as §1
smiles,measurement,setting,value
N#Cc1cc(NC(=O)[C@H]2c3ccccc3C(=O)N(CC(F)(F)F)[C@@H]2c2cccnc2)ccc1F [(+)-SJ733],"IC50 for inhibition of ATP4-associated ATPase activity, MEAN",[1]; MEAN,17.77
same,remaining activity at 0.000122 µM,"[1]; WT T. gondii, [(+)-SJ733] 0.122 nM, MEAN, read-out: TgATP4-associated ATPase activity (% of control)",105%
same,TgATP4-associated ATPase activity (% of control),"[1]; WT T. gondii, [(+)-SJ733] 0.122 nM, single experiments, 0.000122 µM",99.5 % of control and 113.7 % of control
same,remaining activity at 0.000122 µM,"[1]; WT T. gondii, [(+)-SJ733] 0.122 nM, single experiments, read-out: TgATP4-associated ATPase activity (% of control)",102%
same,remaining activity at 0.000244 µM,"[1]; WT T. gondii, [(+)-SJ733] 0.244 nM, MEAN, read-out: TgATP4-associated ATPase activity (% of control)",104%
same,TgATP4-associated ATPase activity (% of control),"[1]; WT T. gondii, [(+)-SJ733] 0.244 nM, single experiments, 0.000244 µM",103.7 % of control and 108.4 % of control
same,remaining activity at 0.000244 µM,"[1]; WT T. gondii, [(+)-SJ733] 0.244 nM, single experiments, read-out: TgATP4-associated ATPase activity (% of control)",99.9%
same,remaining activity at 0.0005 µM,"[1]; WT T. gondii, [(+)-SJ733] 0.5 nM, MEAN, read-out: TgATP4-associated ATPase activity (% of control)",93.6%
same,TgATP4-associated ATPase activity (% of control),"[1]; WT T. gondii, [(+)-SJ733] 0.5 nM, single experiments, 0.0005 µM",96.1 % of control and 95.1 % of control
same,remaining activity at 0.0005 µM,"[1]; WT T. gondii, [(+)-SJ733] 0.5 nM, single experiments, read-out: TgATP4-associated ATPase activity (% of control)",89.6%
same,remaining activity at 0.001 µM,"[1]; WT T. gondii, [(+)-SJ733] 1.0 nM, MEAN, read-out: TgATP4-associated ATPase activity (% of control)",102%
same,TgATP4-associated ATPase activity (% of control),"[1]; WT T. gondii, [(+)-SJ733] 1.0 nM, single experiments, 0.001 µM",96.8 % of control and 112.7 % of control
same,remaining activity at 0.001 µM,"[1]; WT T. gondii, [(+)-SJ733] 1.0 nM, single experiments, read-out: TgATP4-associated ATPase activity (% of control)",94.9%
same,remaining activity at 0.002 µM,"[1]; WT T. gondii, [(+)-SJ733] 2.0 nM, MEAN, read-out: TgATP4-associated ATPase activity (% of control)",95.7%
same,TgATP4-associated ATPase activity (% of control),"[1]; WT T. gondii, [(+)-SJ733] 2.0 nM, single experiments, 0.002 µM",71.9 % of control and 96.8 % of control and 118.4 % of control
same,remaining activity at 0.0039 µM,"[1]; WT T. gondii, [(+)-SJ733] 3.9 nM, MEAN, read-out: TgATP4-associated ATPase activity (% of control)",90.6%
same,TgATP4-associated ATPase activity (% of control),"[1]; WT T. gondii, [(+)-SJ733] 3.9 nM, single experiments, 0.0039 µM",69.6 % of control and 88.2 % of control and 113.9 % of control
same,remaining activity at 0.0078 µM,"[1]; WT T. gondii, [(+)-SJ733] 7.8 nM, MEAN, read-out: TgATP4-associated ATPase activity (% of control)",78.4%
same,TgATP4-associated ATPase activity (% of control),"[1]; WT T. gondii, [(+)-SJ733] 7.8 nM, single experiments, 0.0078 µM",63.9 % of control and 63.6 % of control and 107.7 % of control
same,remaining activity at 0.0156 µM,"[1]; WT T. gondii, [(+)-SJ733] 15.6 nM, MEAN, read-out: TgATP4-associated ATPase activity (% of control)",52.5%
same,remaining activity at 0.0313 µM,"[1]; WT T. gondii, [(+)-SJ733] 31.3 nM, MEAN, read-out: TgATP4-associated ATPase activity (% of control)",42.7%
same,remaining activity at 0.0625 µM,"[1]; WT T. gondii, [(+)-SJ733] 62.5 nM, MEAN, read-out: TgATP4-associated ATPase activity (% of control)",31.7%
same,remaining activity at 0.25 µM,"[1]; WT T. gondii, [(+)-SJ733] 250 nM, MEAN, read-out: TgATP4-associated ATPase activity (% of control)",20.9%
same,remaining activity at 0.5 µM,"[1]; WT T. gondii, [(+)-SJ733] 500 nM, MEAN, read-out: TgATP4-associated ATPase activity (% of control)",14.7%
same,IC50 for ATP4-associated ATPase activity,[1],17.8 ± 9.2 (3) nM
same,IC50,[2],122 ± 7 nM
same,IC50,[3],23000 ± 3200 nM
C[C@H]1Cc2c([nH]c3cc(Cl)c(F)cc23)[C@@]2(N1)C(=O)Nc1ccc(Cl)cc12 [Cipargamin],"IC50 for inhibition of ATP4-associated ATPase activity, MEAN",[1]; MEAN,8.39
same,remaining activity at 60 pM,"[1]; WT T. gondii, Cipargamin 0.06 nM, MEAN, read-out: TgATP4-associated ATPase activity (% of control)",98.4%
same,TgATP4-associated ATPase activity (% of control),"[1]; WT T. gondii, Cipargamin 0.06 nM, single experiments",98.0 % of control
same,remaining activity at 60 pM,"[1]; WT T. gondii, Cipargamin 0.06 nM, single experiments, read-out: TgATP4-associated ATPase activity (% of control)",98.9%
same,remaining activity at 0.00012 µM,"[1]; WT T. gondii, Cipargamin 0.12 nM, MEAN, read-out: TgATP4-associated ATPase activity (% of control)",101%
same,TgATP4-associated ATPase activity (% of control),"[1]; WT T. gondii, Cipargamin 0.12 nM, single experiments",100.0 % of control and 99.7 % of control and 103.4 % of control
same,remaining activity at 0.00012 µM,"[1]; WT T. gondii, Cipargamin 0.12 nM, single experiments, read-out: TgATP4-associated ATPase activity (% of control)",100%
same,remaining activity at 0.00024 µM,"[1]; WT T. gondii, Cipargamin 0.24 nM, MEAN, read-out: TgATP4-associated ATPase activity (% of control)",91.8%
same,TgATP4-associated ATPase activity (% of control),"[1]; WT T. gondii, Cipargamin 0.24 nM, single experiments",81.4 % of control and 81.6 % of control and 107.2 % of control and 96.9 % of control
same,remaining activity at 0.00049 µM,"[1]; WT T. gondii, Cipargamin 0.49 nM, MEAN, read-out: TgATP4-associated ATPase activity (% of control)",76.3%
same,remaining activity at 0.00098 µM,"[1]; WT T. gondii, Cipargamin 0.98 nM, MEAN, read-out: TgATP4-associated ATPase activity (% of control)",66.1%
same,remaining activity at 0.00195 µM,"[1]; WT T. gondii, Cipargamin 1.95 nM, MEAN, read-out: TgATP4-associated ATPase activity (% of control)",47.3%
same,remaining activity at 0.0039 µM,"[1]; WT T. gondii, [cipargamin] 3.9 nM, MEAN, read-out: TgATP4-associated ATPase activity (% of control)",34.5%
same,remaining activity at 0.0078 µM,"[1]; WT T. gondii, [cipargamin] 7.8 nM, MEAN, read-out: TgATP4-associated ATPase activity (% of control)",38.1%
same,remaining activity at 0.0156 µM,"[1]; WT T. gondii, [cipargamin] 15.6 nM, MEAN, read-out: TgATP4-associated ATPase activity (% of control)",21.9%
same,remaining activity at 0.0313 µM,"[1]; WT T. gondii, [cipargamin] 31.3 nM, MEAN, read-out: TgATP4-associated ATPase activity (% of control)",13.1%
same,remaining activity at 0.0625 µM,"[1]; WT T. gondii, [cipargamin] 62.5 nM, MEAN, read-out: TgATP4-associated ATPase activity (% of control)",6.8%
same,IC50 for ATP4-associated ATPase activity,[1],8.4 ± 5.8 (4) nM
same,IC50,[2],2.17 ± 0.24 nM
same,IC50,[3],1640 ± 80 nM
